From patent US20150209342A1, “TOPICAL RETINOID FORMULATIONS, PROCESSES FOR MAKING AND METHODS OF USE” (Allergan, Inc., priority 2014, published 2015) come the findings set out here.

Each structure is given as a SMILES string. Converted amounts (≈) assume the structure as drawn.

The nature of this data set: Tazarotene solubility in water, glycerin, and 70% glycerin solution. The data set is classed as physicochemical.

Regarding `CCOC(=O)c1ccc(C#Cc2ccc3c(c2)C(C)(C)CCS3)nc1` [Tazarotene], the solubility (70% glycerin solution, aqueous with cosolvent or surfactant or cyclodextrin, 70% Glycerin, 5 °C) worked out at 0.27 µg/mL (≈ 0.768 µM); the concentration in solution (70% glycerin solution, aqueous with cosolvent or surfactant or cyclodextrin, 70% Glycerin, 25 °C) (solubility) was 0.68 µg/mL (≈ 1.93 µM); the concentration in solution (70% glycerin solution, aqueous with cosolvent or surfactant or cyclodextrin, 70% Glycerin, 40 °C) (solubility) came to 4.43 µg/mL (≈ 12.6 µM); the solubility (glycerin, 5 °C, organic solvent or mixture) was found to be 72.6 µg/mL (≈ 207 µM); the solubility (glycerin, 25 °C, organic solvent or mixture) came to 34.7 µg/mL (≈ 98.7 µM); the solubility (glycerin, 40 °C, organic solvent or mixture) came to 527 µg/mL (≈ 1500 µM). The solubility is 0.07 µg/mL (≈ 0.199 µM) (water, 5 °C); 0.04 µg/mL (≈ 0.114 µM) (water, 25 °C); 1.7 µg/mL (≈ 4.84 µM) (water, 40 °C). Also, where the note is “in words”, the “solubility of tazarotene in glycerin” value was “low solubility”.

As a reminder, the solubility is the dissolved amount per volume that the medium holds.
